Experimental findings from publication PMC3717276, “Optimization and validation of mitochondria-based functional assay as a useful tool to identify BH3-like molecules selectively targeting anti-apoptotic Bcl-2 proteins” (BMC Biotechnology, 2013) are described below.

For assay [1], the system named is mitochondria isolated from 2LMP cells. The assay can be described thus: Permeabilization of mitochondrial outer membrane (MOMP), Cytochrome C and Smac release by Western blot. Type of assay: biochemical, human. The note with it: agent alone at indicated concentrations, 100 mM KCl buffer, 37°C, 60 min, Figure 3A. In general terms: In western blotting, separated proteins are transferred to a membrane and probed.
Description: Mitochondria were isolated from breast cancer cells. Cells were harvested by centrifugation at 1200 g (Microcentrifuge 5415R from Eppendorf) for 5 min at 4°C and then washed with ice-cold PBS. Cell pellets were resuspended in 400 μl of mitochondria isolation buffer (MIB: pH 7.4; 0.1 mM EDTA, 10 mM Tris–HCl, 250 mM Sucrose) freshly added 1 mM PMSF and Protease Inhibitor Cocktail (Roche). Cell suspensions were then homogenized with 40 strokes in a Dounce Tissue Grinder on ice and centrifuged at 1200 g for 10 min at 4°C. Supernatants were centrifuged at 12000 g for 10 min at 4°C. Pellet enriched in mitochondria was washed three times with MIB, spun down at 12000 g for 10 min at 4°C. […] Protein concentrations were determined using Bradford Protein Assay (Protein Assay Kit II, Cat# 500–0002, Bio-Rad). […]
Supernatant samples and mitochondrial pellet samples were subjected to protein separation by SDS-PAGE. After transfer to Polyvinylidene fluoride (PVDF) membranes, Cytochrome C, Smac proteins and loading control (Cytochrome C Oxidase IV, COX IV) were analyzed using the following primary antibodies: anti-Cytochrome C polyclonal antibody (1:500; #4272; Cell Signaling Techonology), anti-Smac/DIABLO polyclonal antibody (1:500; PC574; Calbiochem), anti-COX IV monoclonal antibody (3E11; 1:1000; #4850; Cell Signaling Techonology). […]

In assay [2] the target is T1, Bcl-xL (Homo sapiens, UniProt Q07817, DEL45-85).
T1 construct: 8xHis (pHis-TEV vector) (N); made in house; host or cells: E. coli BL21(DE3)
In words: SPR competitive solution binding assay (immobilized Bim BH3 peptide). The note with it: read-out: SPR Bcl-xL IC50[nM] ± SD. As to the method:
Lysis buffer contained 50 mM Tris, pH 7.5, 200 mM NaCl, 0.1% BME and Leupectin/Aprotin, while protein was eluted in buffer containing 20 mM Tris, pH7.5, 150 mM NaCl and 5 mM DTT.
(§1) Determination of kon, koff and Kd were calculated by simultaneous non-linear regression using BIAevaluation software (BIAcore Life Sciences).
(§2) IC50 values were determined by Non-linear Least Squares analysis using Graph Pad Prism 5.0 software.

Assay [3] concerns the target T1, Bcl-xL. In words: FP competitive binding assay (FAM-Bak tracer). The note with it: read-out: FP assay Bcl-xL Ki[nM] ± SD.
In assay [4] the target is T2, Mcl-1 (Homo sapiens, UniProt Q07820).
T2 construct: encoding amino acid residues of 171–327; 8xHis (pHis-TEV vector) (N); made in house; host or cells: E. coli BL21(DE3)
The assay can be described thus: FP competitive binding assay (FAM-Bid tracer). The note with it: read-out: FP assay Mcl-1 Ki[nM] ± SD.
Description: After 2–3 hours incubation, the polarization values in milipolarization units (mP) were measured at an excitation wavelength of 485 nm and an emission wavelength of 530 nm using the Synergy H1 Hybrid Microplate Reader (BioTek).

Assay [5] addresses T2, Mcl-1. In words: SPR competitive solution binding assay (immobilized Bim BH3 peptide). The note with it: read-out: SPR Mcl-1 IC50[nM] ± SD. As to the method: The Mcl-1fragment (NM_021960) encoding amino acid residues of 171–327 was cloned into the pHis-TEV vector. Mcl-1 protein with an N-terminal 8×His tag was produced in E. coli BL21(DE3).
as §1, §2

Ends that are not written are not given here.

T2 sequence (Q07820 171-327): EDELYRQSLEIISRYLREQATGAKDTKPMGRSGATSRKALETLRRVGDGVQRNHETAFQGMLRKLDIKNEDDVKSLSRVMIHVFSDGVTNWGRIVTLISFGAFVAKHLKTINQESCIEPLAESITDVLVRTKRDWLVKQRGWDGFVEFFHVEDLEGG
T1 sequence (Q07817 with tags, fused parts or gaps DEL45-85): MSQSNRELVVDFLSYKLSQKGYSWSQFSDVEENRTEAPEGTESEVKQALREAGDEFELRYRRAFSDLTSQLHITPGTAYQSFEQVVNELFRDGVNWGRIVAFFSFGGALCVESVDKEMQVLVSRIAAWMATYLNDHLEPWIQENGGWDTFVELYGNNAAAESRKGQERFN

Regarding `CN(C)CC[C@H](CSc1ccccc1)Nc1ccc(S(=O)(=O)NC(=O)c2ccc(N3CCN(Cc4ccccc4-c4ccc(Cl)cc4)CC3)cc2)cc1[N+](=O)[O-]` [ABT-737], the “Cytochrome C and Smac release from 2LMP mitochondria” value in assay [1] was “effectively induced Cytochrome C and Smac release”. For orientation: IC50 means the concentration that inhibits the measured activity by half. Broadly, the Ki is the dissociation constant of the complex between target and ligand, obtained from inhibition or displacement. Turning to PAELEVECATQLRRFGDKLNFRQKLL [Noxa], at Bcl-xL [2], the IC50 is greater than 30000 nM. For the same compound, the inhibition constant (Ki) at Bcl-xL [3] is greater than 10000 nM. Take `CSCC[C@H](NC(=O)[C@H](CCCNC(=N)N)NC(=O)[C@H](CCCNC(=N)N)NC(=O)[C@H](CC(C)C)NC(=O)[C@H](CCC(=O)O)NC(=O)[C@H](CCCNC(=N)N)NC(=O)CNC(=O)[C@H](Cc1ccc(O)cc1)NC(=O)[C@H](CCCNC(=N)N)NC(=O)[C@H](CCC(N)=O)NC(=O)[C@H](C)NC(=O)[C@H](C)NC(=O)[C@H](Cc1c[nH]c2ccccc12)NC(=O)[C@H](CC(C)C)NC(=O)[C@@H](N)CC(N)=O)C(=O)N[C@@H](CO)C(=O)N[C@@H](CC(=O)O)C(=O)N[C@@H](CCC(=O)O)C(=O)N[C@@H](Cc1ccccc1)C(=O)N[C@H](C(=O)N[C@@H](CC(=O)O)C(=O)N[C@@H](CO)C(=O)N[C@@H](Cc1ccccc1)C(=O)N[C@@H](CCCCN)C(=O)N[C@@H](CCCCN)C(=O)NCC(=O)O)C(C)C` [Bad]: the Ki at Mcl-1 [4] was greater than 20000 nM. For the same compound, the IC50 on Mcl-1 [5] is greater than 30000 nM.
